Assay results: US11266147B2, “Fungicidal oxadiazoles” (Bayer Aktiengesellschaft, priority 2017, dated 2022)

Legend:
[1] = test system: Colletotrichum lindemuthianum; assay: Colletotrichum lindemuthianum in vitro cell test; type: cell-based; conditions: 144 h, liquid culture with spores, 6 days incubation, read-out: efficacy (inhibition of fungal growth); for inhibition at 4 ppm: 4 ppm of active ingredient; for inhibition at 20 ppm: 20 ppm of active ingredient
Protocol: Example E: Colletotrichum lindemuthianum In Vitro Cell Test • Solvent: DMSO • Culture medium: 14.6 g anhydrous D-glucose (VWR), 7.1 g Mycological Peptone (Oxoid), 1.4 g granulated Yeast Extract (Merck), QSP 1 liter • Inoculum: spores suspension Fungicides were solubilized in DMSO and the solution used to prepare the required range of concentrations. The final concentration of DMSO used in the assay was ≤[…]1%. A spore suspension of C. lindemuthianum was prepared and diluted to the desired spore density. Fungicides were evaluated for their ability to inhibit spores germination and mycelium growth in liquid culture assay. The compounds were added in the desired concentration to the culture medium with spores. After 6 days incubation, fungi-toxicity of compounds was determined by spectrometric measurement of mycelium growth. Inhibition of fungal growth was determined by comparing the absorbance values in wells containing the fungicides with the absorbance in control wells without fungicides.

[2] = LogP by HPLC on reversed phase columns (EEC directive 79/831 Annex V.A8); type: physicochemical; conditions: method [a]: LC-UV, acidic range, 0.1% formic acid in water and acetonitrile, linear gradient 10% to 95% acetonitrile
Protocol: [table] If more than one LogP value is available within the same method, all the values are given and separated by “+”. Calibration was done with straight-chain alkan2-ones (with 3 to 16 carbon atoms) with known LogP values (measurement of LogP values using retention times with linear interpolation between successive alkanones). Lambda-max-values were determined using UV-spectra from 200 nm to 400 nm and the peak values of the chromatographic signals.

chromatographic logP ([2]; reversed phase HPLC column) | SMILES | inhibition at 4 ppm [1] | inhibition at 20 ppm [1] | LogP [2]
 | FC(F)(F)c1nc(-c2cnc(N[C@@H]3CCOc4ccccc43)nc2)no1 [Compound I-01, N-[(4R)-3,4-dihydro-2H-chromen-4-yl]-5-[5-(trifluoromethyl)-1,2,4-oxadiazol-3-yl]pyrimidin-2-amine] | 70 to 79% | 80 to 89% | 
 | Fc1ccccc1Nc1ncc(-c2noc(C(F)(F)F)n2)cn1 [Compound I-04, N-(2-Fluorophenyl)-5-[5-(trifluoromethyl)-1,2,4-oxadiazol-3-yl]pyrimidin-2-amine] | 80 to 89% | 80 to 89% | 
3.5 | FC(F)(F)c1nc(-c2ccc(Nc3ncccn3)cc2)no1 [Compound I-05, N-{4-[5-(trifluoromethyl)-1,2,4-oxadiazol-3-yl]phenyl}pyrimidin-2-amine] | 80 to 89% | 90 to 100% | 
 | Cn1ccnc1Nc1ncc(-c2noc(C(F)(F)F)n2)cn1 [Compound I-88] |  |  | 1.08^[a]
 | FC(F)(Cl)c1nc(-c2cnc(Nc3nc4c(s3)CCC4)nc2)no1 [Compound I-89] |  |  | 4.03^[a]
 | FC(F)(Cl)c1nc(-c2cnc(Nc3ccc4ncccc4c3)nc2)no1 [Compound I-90] |  |  | 2.13^[a]
